The source of these data is patent US11608334B2, “Pyrrolo-aromatic heterocyclic compound, preparation method therefor, and medical use thereof” (The National Institutes of Pharmaceutical R&D Co., Ltd., priority 2017, dated 2023).

The term IC50 denotes the concentration needed to halve the response being measured.

The target of one assay is T1, BTK (Homo sapiens, UniProt Q06187).
T1 construct: purchased Promega
Briefly: Determination of BTK inhibitory activity (ADP-Glo kinase assay). It counts as biochemical. As to conditions: BTK (Promega), Poly E4Y substrate, 25° C., 60 minutes. As to the method:
To a 384 reaction plate (6008280, PerkinElmer), 2 μL/well of BTK solution (purchased from Promega) was added. The test compound (10 mM stock solution) was diluted 100-fold to 100 μM with 100% DMSO. In a 384 dilution plate (3657, coming), a 1:3 dilution was made, and the gradient concentrations of the test compounds were 100, 33.3, 11.1, 3.7, 1.24, 0.41, 0.14, 0.046, 0.015, 0.0051, 0 μM. 2 μL of the test compound was transferred to a 384-dilution plate containing 38 μL of 1× Kinase Reaction Buffer, homogenized and centrifuged at 1000 rpm. 1 μL of the test compound was transferred to the 384 reaction plate, centrifuged at 1000 rpm, and incubated at 25° C. for 15 minutes. 2 μL of substrate mixture (ATP: 10 mM, 4 μL; Poly E4Y 1:1 mg/mL, 20 μL; Kinase Reaction Buffer: 776 μL) was transferred to a 384 reaction plate, centrifuged at 1000 rpm and incubated at 25° C. for 60 minutes. The final concentration of the test compound in the reaction system was the gradients of 1000, 333.3, 111.1, 37.03, 12.35, 4.14, 1.37, 0.46, 0.15, 0.051, 0 nM. The final concentration of DMSO was 1%. 5 μL of ADP-Glo solution (purchased from Promega) was transferred to a 384 reaction plate, centrifuged at 1000 rpm and incubated at 25° C. for 40 minutes. 10 μL of Detection solution was transferred to a 384 reaction plate, centrifuged at 1000 rpm and incubated for 40 minutes at 25° C. The RLU (Relative luminescence unit) signal was read using an Envision multi-function reader (Perkin Elmer), and the signal intensity was used to characterize the activity of BTK kinase. The IC50 values was calculated and analyzed by Microsoft Excel software.
On the technique in general: ADP-Glo first removes unused ATP, then detects ADP through luciferase.

Assay [1] has as its system Type 2 Collagen Induced DBA/1J Mouse Arthritis Model (CIA). As to the kind of experiment: Type 2 collagen induced DBA/1J mouse arthritis model (CIA), arthritis index score. The settings on record: CIA DBA/1 mice, 30 mg/kg orally once a day, n = 9. It counts as in vivo. As to the method:
The CIA model is an animal model widely used to study the drug activity on human rheumatoid arthritis.
Animals: DBA/1 mice, sex: male, number: 30, weight: 14-16 g, age of weeks: 6-7 weeks old, purchased from Beijing Weitong Lihua Experimental Animal Technology Co., Ltd., SPF, animal production license number: SCXK (Beijing) 2012-0001, the issue unit: Beijing Science and Technology Commission.
Group: model control group, administration (30 mg/Kg) group (compound of example 33).
An appropriate amount of Bovine Type II Collage (purchased from Chondrex. Inc.) was dissolved in 0.05 M acetic acid (4 mg collagen/mL) and stored in a refrigerator at 4° C. overnight. Then it was fully emulsified with an equal amount of complete Freund's adjuvant in an ice bath environment. Each DBA/1J mouse was injected subcutaneously at 1.5 cm from the base of the tail with 0.1 mL emulsion (200 μg of collagen). Clinical symptom observation and arthritis score were started 4 weeks after modeling. The scores of all symptomatic animals were ranked and randomly grouped into two groups, which were model control group (the same amount of 0.5% CMC was administered orally) and administration group (30 mg/kg of the compound of Example 33 was administered orally) respectively. The administration was continued for 21 days withonce a day. Arthritis scores and body weight changes were measured every 3 days after administration.
Arthritis Index Score: The arthritis index score is based on Wood's arthritis score as follows: • 0 points: normal • 1 points: redness involving 1 knuckle • 2 points: redness involving more than 2 knuckles or mild redness involving entire foot • 3 points: the feet are red and swollen • 4 points: the feet are severely red and swollen, and the joints are stiff and inelastic.
The damage of each of the 4 paws was graded as 0-4 points and the total score of the limbs was calculated. The scores at different times were compared (arthritis index).

T1 sequence (Q06187 whole entry): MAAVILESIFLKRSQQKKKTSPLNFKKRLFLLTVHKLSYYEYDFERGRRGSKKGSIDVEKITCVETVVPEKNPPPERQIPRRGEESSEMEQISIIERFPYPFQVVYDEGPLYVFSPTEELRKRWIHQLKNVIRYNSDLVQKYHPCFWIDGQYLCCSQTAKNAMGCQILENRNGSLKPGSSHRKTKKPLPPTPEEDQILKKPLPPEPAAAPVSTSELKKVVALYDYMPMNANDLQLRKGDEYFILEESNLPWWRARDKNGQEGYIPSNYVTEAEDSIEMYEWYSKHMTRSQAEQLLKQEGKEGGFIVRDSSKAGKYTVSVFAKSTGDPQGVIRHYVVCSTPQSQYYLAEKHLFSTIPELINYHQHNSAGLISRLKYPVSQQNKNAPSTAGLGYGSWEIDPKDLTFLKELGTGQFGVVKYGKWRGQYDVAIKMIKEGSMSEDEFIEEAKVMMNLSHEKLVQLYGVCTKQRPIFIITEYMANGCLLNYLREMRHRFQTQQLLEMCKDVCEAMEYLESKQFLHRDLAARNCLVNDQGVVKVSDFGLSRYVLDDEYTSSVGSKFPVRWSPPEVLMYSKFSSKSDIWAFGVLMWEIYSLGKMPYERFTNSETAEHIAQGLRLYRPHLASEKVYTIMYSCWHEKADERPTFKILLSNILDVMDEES

`C=CC(=O)Nc1cccc(Nc2ncnc3[nH]c(-c4ccc(N5CCOCC5)cc4)cc23)c1` [Example 32, N-(3-((6-(4-morpholinylphenyl)-7H-pyrrolo[2,3-d]pyrimidin-4-yl)amino)phenyl) acrylamide] returned an IC50 against BTK of less than 100 nM.

At BTK, `C=CC(=O)Nc1cc(Oc2ncnc3[nH]c(-c4ccc(N5CCN(C)CC5)cc4)cc23)ccc1F` [Example 18, N-(2-fluoro-5-((6-(4-(4-methylpiperazin-1-yl)phenyl)-7H-pyrrolo[2,3-d]pyrimidin-4-yl)oxy)phenyl)acrylamide] displayed an IC50 of less than 100 nM.

Regarding `CC#CC(=O)Nc1cccc(Oc2ncnc3[nH]c(-c4ccc(CN5CCC(F)(F)CC5)cc4)cc23)c1` [Example 63, N-(3-((6-(4-((4,4-difluoropiperidin-1-yl)methyl)phenyl)-7H-pyrrolo[2,3-d]pyrimidin-4-yl)oxy)phenyl)but-2-ynylamide], the IC50 against BTK was less than 100 nM.

The compound `CC#CC(=O)Nc1cccc(Oc2ncnc3[nH]c(-c4ccc(N5CCN(C)CC5)cc4)cc23)c1` [Example 6, N-(3-((6-(4-(4-methylpiperazin-1-yl)phenyl)-7H-pyrrolo[2,3-d]pyrimidin-4-yl)oxy)phenyl) but-2-ynylamide] had a half-inhibitory concentration (IC50) against BTK of less than 100 nM.

For `CC#CC(=O)Nc1cccc(Oc2ncnc3[nH]c(-c4ccc(CN5CCCCC5)cc4)cc23)c1` [Example 64], on BTK, the IC50 is less than 100 nM.

`C=CC(=O)Nc1cccc(Oc2ncnc3[nH]c(-c4ccc(CN5CCOCC5)cc4)cc23)c1` [Example 46, N-(3-((6-(4-(morpholinomethyl)phenyl)-7H-pyrrolo[2,3-d]pyrimidin-4-yl)oxy)phenyl)acrylamide]: the concentration for half-maximal inhibition (IC50) on BTK was less than 100 nM.

Compound `C=CC(=O)Nc1cccc(Oc2ncnc3[nH]c(-c4ccc(CN5CCC(F)(F)CC5)cc4)cc23)c1` [Example 47, N-(3-((6-(4-((4,4-Difluoropiperidin-1-yl)methyl)phenyl)-7H-pyrrolo[2,3-d]pyrimidin-4-yl)oxy)phenyl)acrylamide] had an IC50 against BTK of less than 100 nM.

On BTK, `C=CC(=O)Nc1cccc(Oc2c(F)cnc3[nH]c(-c4ccc(N5CCN(C)CC5)cc4)cc23)c1` [Example 2, N-(3-((5-fluoro-2-(4-(4-methylpiperazin-1yl)phenyl)-1H-pyrrolo[2,3-b]pyridin-4-yl)oxy)phenyl) acrylamide] gave an IC50 of less than 100 nM.

Compound `C=CC(=O)Nc1cccc(Oc2ncnc3[nH]c(-c4ccc(N5CCN(C)CC5)c(F)c4)cc23)c1` [Example 25, N-(3-((6-(3-fluoro-4-(4-methylpiperazin-1-yl)phenyl)-7H-pyrrolo[2,3-d]pyrimidin-4-yl)oxy)phenyl)acrylamide] showed a half-inhibitory concentration (IC50) against BTK of less than 100 nM.

On to `C=CC(=O)Nc1cccc(Oc2c(Cl)cnc3[nH]c(-c4ccc(N5CCN(C)CC5)cc4)cc23)c1` [Example 1, N-(3-((5-chloro-2-(4-(4-methylpiperazin-1yl)phenyl)-1H-pyrrolo[2,3-b]pyridin-4-yl)oxy)phenyl)acrylamide], for which the IC50 at BTK is less than 100 nM.

As for `C=CC(=O)Nc1cc(Oc2ncnc3[nH]c(-c4ccc(N5CCOCC5)cc4)cc23)ccc1F` [Example 19, N-(2-Fluoro-5-((6-(4-morpholinylphenyl)-7H-pyrrolo[2,3-d]pyrimidin-4-yl)oxy)phenyl)acrylamide], the IC50 against BTK was less than 100 nM.

As to `C=CC(=O)Nc1cccc(Oc2ncnc3[nH]c(-c4ccc(CN5CCS(=O)(=O)CC5)cc4)cc23)c1` [Example 44, N-(3-((6-(4-((1,1-dioxothiomorpholinyl)methyl)phenyl)-7H-pyrrolo[2,3-d]pyrimidin-4-yl)oxy)phenyl)acrylamide], the concentration for half-maximal inhibition (IC50) on BTK was less than 100 nM.

`C=CC(=O)N(C)c1cccc(Oc2ncnc3[nH]c(-c4ccc(N5CCOCC5)cc4)cc23)c1` [Example 16, N-methyl-N-(3-((6-(4-morpholinylphenyl)-7H-pyrrolo[2,3-d]pyrimidin-4-yl)oxy)phenyl)acrylamide] displayed an IC50 at BTK of less than 100 nM.

As to `C=CC(=O)Nc1cccc(Oc2ncnc3[nH]c(-c4ccc(N5CCOCC5)cc4)cc23)c1` [Example 33, N-(3-((6-(4-morpholinylphenyl)-7H-pyrrolo[2,3-d]pyrimidin-4-yl)oxy)phenyl)acrylamide], the Arthritis score in assay [1] (3 day after administration) is 5.00 ± 3.16; in assay [1] (7 day after administration) it was 5.78 ± 2.91; in assay [1] (10 day after administration) it was 6.13 ± 3.23; in assay [1] (14 day after administration, *P < 0.05 vs model control), 5.13 ± 3.60*; in assay [1] (17 day after administration, *P < 0.05 vs model control) it was 4.63 ± 3.11*; in assay [1] (21 day after administration, **P < 0.01 vs model control), 3.63 ± 1.92**. In assay [1] (Before administration), the Arthritis score is 4.11 ± 3.26.

Consider `C=CC(=O)Nc1cccc(Oc2ncnc3[nH]c(-c4ccc(N5CCN(C)CC5)cc4)cc23)c1` [Example 12, N-(3-((6-(4-(4-methylpiperazin-1-yl)phenyl)-7H-pyrrolo[2,3-d]pyrimidin-4-yl)oxy)phenyl) acrylamide], for which, on BTK, the IC50 is less than 100 nM.

Consider `C=CC(=O)Nc1cccc(Nc2ncnc3[nH]c(-c4ccc(N5CCN(C)CC5)cc4)cc23)c1` [Example 5, N-(3-((6-(4-(4-methylpiperazin-1-yl)phenyl)-7H-pyrrolo[2,3-d]pyrimidin-4-yl)amino)phenyl)acrylamide], for which the IC50 against BTK is less than 100 nM.

For the compound `C=CC(=O)Nc1cccc(Oc2ncnc3[nH]c(-c4ccc(NC5CCN(C)CC5)cc4)cc23)c1` [Example 53, N-(3-((6-(4-((1-methylpiperidin-4-yl)amino)phenyl)-7H-pyrrolo[2,3-d]pyrimidin-4-yl)oxy)phenyl)acrylamide], the IC50 on BTK was less than 100 nM.
